The values below come from publication PMC3950950, “Fluorescent sensors for activity and regulation of the nitrate transceptor CHL1/NRT1.1 and oligopeptide transporters” (eLife, 2014).

Assay type in all cases: cell-based
One test concerns the target T1, PepTrac1 (PTR1 fusion) (Arabidopsis thaliana, UniProt Q9M390).
T1 construct: gene NPF8.1; full-length ORF between N-terminal Aphrodite and C-terminal mCerulean; expressed in yeast; intact cells
T1 sequence (Q9M390 1-570): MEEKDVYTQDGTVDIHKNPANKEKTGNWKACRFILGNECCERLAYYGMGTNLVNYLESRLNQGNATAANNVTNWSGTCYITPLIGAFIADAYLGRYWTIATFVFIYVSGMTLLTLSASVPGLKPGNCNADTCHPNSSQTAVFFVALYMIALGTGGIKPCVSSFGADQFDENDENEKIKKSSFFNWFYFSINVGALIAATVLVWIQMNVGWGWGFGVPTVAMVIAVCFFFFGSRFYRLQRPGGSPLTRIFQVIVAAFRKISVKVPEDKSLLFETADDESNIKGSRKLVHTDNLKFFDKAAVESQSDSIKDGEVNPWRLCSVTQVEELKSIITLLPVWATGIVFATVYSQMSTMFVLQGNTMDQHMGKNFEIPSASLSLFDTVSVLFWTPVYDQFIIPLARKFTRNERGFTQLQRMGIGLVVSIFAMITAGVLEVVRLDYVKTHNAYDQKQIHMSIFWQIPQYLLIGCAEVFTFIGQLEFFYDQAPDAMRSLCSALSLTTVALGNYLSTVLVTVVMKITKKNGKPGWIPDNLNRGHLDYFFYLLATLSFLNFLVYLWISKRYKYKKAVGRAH
Briefly: fluorescence response (donor quenching) of sensor in yeast. Particulars: 0.5 mM diglycine; 50 mM MES pH 5.5; excitation 428 nm.

Another test addresses T2, PepTrac2 (PTR2 fusion) (Arabidopsis thaliana, UniProt P46032).
T2 construct: gene NPF8.3; full-length ORF between N-terminal Aphrodite and C-terminal mCerulean; expressed in yeast; intact cells
T2 sequence (P46032 1-585): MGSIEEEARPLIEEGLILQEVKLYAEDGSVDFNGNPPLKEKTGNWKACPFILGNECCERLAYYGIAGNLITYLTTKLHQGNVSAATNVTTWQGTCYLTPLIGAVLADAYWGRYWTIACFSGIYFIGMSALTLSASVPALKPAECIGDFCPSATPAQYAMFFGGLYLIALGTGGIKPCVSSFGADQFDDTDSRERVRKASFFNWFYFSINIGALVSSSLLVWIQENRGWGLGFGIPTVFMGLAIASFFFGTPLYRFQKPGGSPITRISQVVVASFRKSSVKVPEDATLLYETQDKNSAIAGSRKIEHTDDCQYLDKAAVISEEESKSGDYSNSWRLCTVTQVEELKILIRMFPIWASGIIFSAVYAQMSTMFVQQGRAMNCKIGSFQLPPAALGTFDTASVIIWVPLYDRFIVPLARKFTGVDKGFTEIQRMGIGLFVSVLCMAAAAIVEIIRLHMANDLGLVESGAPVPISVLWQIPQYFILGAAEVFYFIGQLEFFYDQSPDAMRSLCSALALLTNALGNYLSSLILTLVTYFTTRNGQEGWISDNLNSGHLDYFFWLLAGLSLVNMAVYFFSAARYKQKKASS
Described as above. Particulars: 0.5 mM diglycine; 50 mM MES pH 5.5; excitation 428 nm.

The target of the next test is T3, PepTrac4 (PTR4 fusion) (Arabidopsis thaliana, UniProt Q84WG0).
T3 construct: gene NPF8.4; full-length ORF between N-terminal Aphrodite and C-terminal mCerulean; expressed in yeast; intact cells
T3 sequence (Q84WG0 1-545): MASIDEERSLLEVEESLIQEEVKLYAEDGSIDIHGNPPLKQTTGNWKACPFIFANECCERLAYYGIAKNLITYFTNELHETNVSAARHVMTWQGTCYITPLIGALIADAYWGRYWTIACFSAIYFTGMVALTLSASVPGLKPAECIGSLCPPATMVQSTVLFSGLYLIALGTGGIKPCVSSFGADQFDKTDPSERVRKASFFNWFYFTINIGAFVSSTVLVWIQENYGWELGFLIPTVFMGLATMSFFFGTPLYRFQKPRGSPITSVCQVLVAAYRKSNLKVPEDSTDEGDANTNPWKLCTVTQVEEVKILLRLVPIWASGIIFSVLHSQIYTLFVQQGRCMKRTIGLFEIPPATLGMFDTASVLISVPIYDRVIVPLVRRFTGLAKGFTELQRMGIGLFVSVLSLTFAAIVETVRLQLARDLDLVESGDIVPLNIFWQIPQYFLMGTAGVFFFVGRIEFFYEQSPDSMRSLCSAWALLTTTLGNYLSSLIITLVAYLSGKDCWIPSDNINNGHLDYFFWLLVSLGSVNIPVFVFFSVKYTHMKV
Nature of the test: FRET ratio change of sensor in yeast. Particulars: 0.5 mM diglycine; 50 mM MES pH 5.5; excitation 428 nm.

The next test deals with T4, PepTrac5 (PTR5 fusion) (Arabidopsis thaliana, UniProt Q9LFB8).
T4 construct: gene NPF8.2; full-length ORF between N-terminal Aphrodite and C-terminal mCerulean; expressed in yeast; intact cells
T4 sequence (Q9LFB8 1-570): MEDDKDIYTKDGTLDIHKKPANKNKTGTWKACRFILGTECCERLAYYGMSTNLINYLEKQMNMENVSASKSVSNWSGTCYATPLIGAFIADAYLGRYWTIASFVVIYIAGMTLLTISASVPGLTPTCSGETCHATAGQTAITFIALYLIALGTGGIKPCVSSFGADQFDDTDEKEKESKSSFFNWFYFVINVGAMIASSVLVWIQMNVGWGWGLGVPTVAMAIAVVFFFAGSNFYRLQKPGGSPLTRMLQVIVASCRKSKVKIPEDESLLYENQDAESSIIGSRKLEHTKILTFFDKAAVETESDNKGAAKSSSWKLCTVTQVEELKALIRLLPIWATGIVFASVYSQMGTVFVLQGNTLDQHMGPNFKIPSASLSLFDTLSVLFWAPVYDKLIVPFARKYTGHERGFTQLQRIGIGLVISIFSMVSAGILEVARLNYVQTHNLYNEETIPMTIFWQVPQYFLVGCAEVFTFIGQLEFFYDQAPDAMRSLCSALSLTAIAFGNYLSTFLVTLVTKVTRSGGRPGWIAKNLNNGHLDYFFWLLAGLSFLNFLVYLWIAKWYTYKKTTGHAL
Nature of the test: fluorescence response (donor quenching) of sensor in yeast. Particulars: 0.5 mM diglycine; 50 mM MES pH 5.5; excitation 428 nm.

Test [1] has as its target T5, NiTrac1 (CHL1/NRT1.1/NPF6.3 fusion) (Arabidopsis thaliana, UniProt Q05085).
T5 construct: full-length ORF between N-terminal Aphrodite t9 (yellow FP) and C-terminal mCerulean (pDRFlip30); expressed in yeast BJ5465; intact cells
T5 sequence (Q05085 1-590): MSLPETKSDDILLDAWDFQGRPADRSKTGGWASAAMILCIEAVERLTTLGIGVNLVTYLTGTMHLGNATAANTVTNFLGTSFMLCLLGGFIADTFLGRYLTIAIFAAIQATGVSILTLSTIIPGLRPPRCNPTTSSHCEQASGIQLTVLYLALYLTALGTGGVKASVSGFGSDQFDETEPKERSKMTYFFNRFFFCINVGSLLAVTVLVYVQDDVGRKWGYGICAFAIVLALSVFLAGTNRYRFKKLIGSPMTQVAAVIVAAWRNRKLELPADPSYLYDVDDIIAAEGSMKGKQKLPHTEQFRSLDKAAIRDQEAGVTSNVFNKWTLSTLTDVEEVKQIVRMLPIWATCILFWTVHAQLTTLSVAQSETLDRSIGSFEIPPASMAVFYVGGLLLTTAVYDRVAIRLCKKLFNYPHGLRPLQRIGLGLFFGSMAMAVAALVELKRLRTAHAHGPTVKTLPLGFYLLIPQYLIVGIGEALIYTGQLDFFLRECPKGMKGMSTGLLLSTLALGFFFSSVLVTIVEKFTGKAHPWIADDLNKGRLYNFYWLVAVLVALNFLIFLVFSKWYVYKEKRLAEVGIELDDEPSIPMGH
Briefly: fluorescence response (donor quenching) of sensor in yeast, plate reader. Particulars: 50 mM MES pH 5.5; high-affinity phase of biphasic response (low-affinity phase is a second site); excitation 428 nm.

Another test has as its target T6, CHL1/NRT1.1/NPF6.3 (Arabidopsis thaliana, UniProt Q05085).
T6 construct: CHL1 cDNA without fluorescent proteins in pOO2-GW; cRNA-injected Xenopus laevis oocytes
T6 sequence (Q05085 1-590): T5 sequence (Q05085 1-590)
Briefly: […]-nitrate uptake and TEVC currents in Xenopus oocytes. Particulars: 0.25 and 10 mM K15NO3, pH 5.5 (uptake); 0.5 and 10 mM CsNO3 (TEVC).

Each structure is given as a SMILES string. Residues, ends and D or L forms follow the SMILES beside them.

For `NCC(=O)NCC(=O)O` [diglycine] (H-Gly-Gly-OH), the “fluorescence response (donor quenching) of sensor in yeast” value on PepTrac1 (PTR1 fusion) is “PepTrac1, PepTrac2, and PepTrac5 sensors all responded with donor quenching”; at PepTrac2 (PTR2 fusion), “PepTrac1, PepTrac2, and PepTrac5 sensors all responded with donor quenching”; on PepTrac5 (PTR5 fusion) it was “PepTrac1, PepTrac2, and PepTrac5 sensors all responded with donor quenching”. Further, the “FRET ratio change of sensor in yeast” value on PepTrac4 (PTR4 fusion) was “PepTrac4 responded to substrate addition with a ratio change”.
Take `O=[N+]([O-])O` [nitrate]: the Km in test [1] is ~ 75.1 ± 21 μM. Besides, the “15N-nitrate uptake and TEVC currents in Xenopus oocytes” value at CHL1/NRT1.1/NPF6.3 is recorded as “In response to nitrate addition, CHL1 expressing oocytes showed an inward current”.
